Laboratory results from the NIST ThermoML archive (doi:10.1021/je700281z).
Numbers after ± are expanded uncertainties.

Legend:
[1] = 101.33 kPa, Liquid; for speed of sound: sound analyzer
[2] = xn = mol fraction of the nth substance listed; conditions: 101 kPa, Liquid

COCCOCCO [2-(2-methoxyethoxy)ethanol]
[1]
Conditions | mass density [kg/m3] | speed of sound [m/s]
293.15 K | 1019.81 ± 1.1 | 1432.4 ± 2
298.15 K | 1015.41 ± 1.1 | 1415.2 ± 2
303.15 K | 1010.91 ± 1.1 | 1397.9 ± 2

COCCOCCO [2-(2-methoxyethoxy)ethanol] + CCCCO
[2]
Conditions | mass density [kg/m3]
293.15 K, x1 = 0.0535 | 823.612 ± 0.85
293.15 K, x1 = 0.1527 | 848.542 ± 0.8
293.15 K, x1 = 0.2 | 860.004 ± 0.78
293.15 K, x1 = 0.2003 | 860.091 ± 0.78
293.15 K, x1 = 0.2518 | 872.235 ± 0.77
293.15 K, x1 = 0.3009 | 883.531 ± 0.75
293.15 K, x1 = 0.3032 | 884.084 ± 0.75
293.15 K, x1 = 0.3546 | 895.622 ± 0.74
293.15 K, x1 = 0.399 | 905.367 ± 0.74
293.15 K, x1 = 0.4007 | 905.744 ± 0.74
293.15 K, x1 = 0.4522 | 916.775 ± 0.74
293.15 K, x1 = 0.5012 | 927.038 ± 0.74
293.15 K, x1 = 0.5527 | 937.589 ± 0.75
293.15 K, x1 = 0.5978 | 946.625 ± 0.76
293.15 K, x1 = 0.6019 | 947.427 ± 0.77
293.15 K, x1 = 0.6526 | 957.368 ± 0.78
293.15 K, x1 = 0.6961 | 965.704 ± 0.8
293.15 K, x1 = 0.7503 | 975.858 ± 0.83
293.15 K, x1 = 0.7973 | 984.5 ± 0.86
293.15 K, x1 = 0.8492 | 993.819 ± 0.89
293.15 K, x1 = 0.8978 | 1002.37 ± 0.94
293.15 K, x1 = 0.947 | 1010.88 ± 1
298.15 K, x1 = 0.053 | 819.639 ± 0.86
298.15 K, x1 = 0.1019 | 832.026 ± 0.83
298.15 K, x1 = 0.1502 | 843.949 ± 0.81
298.15 K, x1 = 0.2028 | 856.65 ± 0.79
298.15 K, x1 = 0.2523 | 868.3 ± 0.78
298.15 K, x1 = 0.3497 | 890.395 ± 0.76
298.15 K, x1 = 0.454 | 912.946 ± 0.75
298.15 K, x1 = 0.5507 | 932.958 ± 0.76
298.15 K, x1 = 0.6013 | 943.061 ± 0.78
298.15 K, x1 = 0.648 | 952.194 ± 0.79
298.15 K, x1 = 0.6994 | 962.043 ± 0.81
298.15 K, x1 = 0.7465 | 970.86 ± 0.83
298.15 K, x1 = 0.7505 | 971.594 ± 0.84
298.15 K, x1 = 0.7968 | 980.073 ± 0.86
298.15 K, x1 = 0.7977 | 980.251 ± 0.86
298.15 K, x1 = 0.8465 | 988.996 ± 0.9
298.15 K, x1 = 0.8486 | 989.382 ± 0.9
298.15 K, x1 = 0.8987 | 998.178 ± 0.94
298.15 K, x1 = 0.899 | 998.234 ± 0.94
298.15 K, x1 = 0.9481 | 1006.69 ± 1
298.15 K, x1 = 0.9483 | 1006.72 ± 1
303.15 K, x1 = 0.0508 | 815.157 ± 0.87
303.15 K, x1 = 0.1014 | 827.941 ± 0.84
303.15 K, x1 = 0.1471 | 839.22 ± 0.82
303.15 K, x1 = 0.2015 | 852.303 ± 0.8
303.15 K, x1 = 0.2528 | 864.365 ± 0.79
303.15 K, x1 = 0.3048 | 876.239 ± 0.78
303.15 K, x1 = 0.3503 | 886.405 ± 0.77
303.15 K, x1 = 0.3555 | 887.558 ± 0.77
303.15 K, x1 = 0.4005 | 897.361 ± 0.76
303.15 K, x1 = 0.4503 | 908.007 ± 0.76
303.15 K, x1 = 0.4981 | 917.96 ± 0.77
303.15 K, x1 = 0.5518 | 928.933 ± 0.77
303.15 K, x1 = 0.5996 | 938.439 ± 0.79
303.15 K, x1 = 0.648 | 947.877 ± 0.8
303.15 K, x1 = 0.6991 | 957.619 ± 0.82
303.15 K, x1 = 0.7497 | 967.071 ± 0.85
303.15 K, x1 = 0.7954 | 975.414 ± 0.87
303.15 K, x1 = 0.8491 | 985.035 ± 0.91
303.15 K, x1 = 0.8964 | 993.318 ± 0.94
303.15 K, x1 = 0.9513 | 1002.75 ± 1

CCCCOCCOCCO [3,6-dioxa-1-decanol]
[1]
Conditions | mass density [kg/m3] | speed of sound [m/s]
293.15 K | 952.196 ± 1.1 | 1374.3 ± 2
298.15 K | 948.103 ± 1.1 | 1357 ± 2
303.15 K | 943.743 ± 1.1 | 1340 ± 2
